Measurements reported in the NIST ThermoML archive (doi:10.1016/j.jct.2016.11.009).

Assay: xn = mol fraction of the nth substance listed
Conditions: Fluid (supercritical or subcritical phases), Buoyancy - hydrostatic balance with magnetic suspension - one sinker

C [methane] + O=C=O
Conditions	mass density [kg/m3]
303.29 K, 11998 kPa, x2 = 0.8988	626.792
303.29 K, 15006 kPa, x2 = 0.3997	237.974
305.01 K, 18003 kPa, x2 = 0.8988	732.397
305.04 K, 7997 kPa, x2 = 0.8988	244.829
305.06 K, 9978 kPa, x2 = 0.8988	474.418
305.08 K, 11001 kPa, x2 = 0.3997	159.477
305.09 K, 12002 kPa, x2 = 0.0998	107.694
305.1 K, 4001 kPa, x2 = 0.3997	47.504
305.1 K, 17995 kPa, x2 = 0.6015	408.107
305.11 K, 3997 kPa, x2 = 0.7985	72.035
305.11 K, 5997 kPa, x2 = 0.0998	49.434
305.11 K, 6003 kPa, x2 = 0.7985	122.855
305.12 K, 3998 kPa, x2 = 0.8988	79.325
305.12 K, 5006 kPa, x2 = 0.7985	95.778
305.13 K, 6992 kPa, x2 = 0.0998	58.605
305.13 K, 6994 kPa, x2 = 0.8988	182.804
305.13 K, 9002 kPa, x2 = 0.0998	77.799
305.13 K, 11012 kPa, x2 = 0.6015	223.4
305.13 K, 14994 kPa, x2 = 0.3997	233.75
305.14 K, 5001 kPa, x2 = 0.6015	76.729
305.14 K, 14994 kPa, x2 = 0.7985	546.063
305.15 K, 3979 kPa, x2 = 0.6015	58.587
305.15 K, 6000 kPa, x2 = 0.6015	96.024
305.15 K, 7998 kPa, x2 = 0.0998	68.122
305.15 K, 9004 kPa, x2 = 0.6015	165.984
305.15 K, 11001 kPa, x2 = 0.2017	116.026
305.15 K, 11998 kPa, x2 = 0.2017	128.322
305.15 K, 12006 kPa, x2 = 0.3997	178.104
305.16 K, 3003 kPa, x2 = 0.0998	23.496
305.16 K, 4003 kPa, x2 = 0.0998	31.879
305.16 K, 8002 kPa, x2 = 0.2017	80.173
305.16 K, 8998 kPa, x2 = 0.3997	123.489
305.16 K, 10996 kPa, x2 = 0.8988	555.932
305.16 K, 14996 kPa, x2 = 0.0998	137.438
305.16 K, 15000 kPa, x2 = 0.6015	340.932
305.16 K, 18000 kPa, x2 = 0.2017	199.543
305.17 K, 6999 kPa, x2 = 0.6015	117.142
305.17 K, 7000 kPa, x2 = 0.7985	154.794
305.17 K, 10003 kPa, x2 = 0.0998	87.669
305.17 K, 10999 kPa, x2 = 0.0998	97.609
305.17 K, 18001 kPa, x2 = 0.0998	165.624
305.18 K, 4001 kPa, x2 = 0.2017	37.03
305.18 K, 4996 kPa, x2 = 0.3997	60.999
305.18 K, 5001 kPa, x2 = 0.2017	47.235
305.18 K, 6000 kPa, x2 = 0.3997	75.426
305.18 K, 7002 kPa, x2 = 0.3997	90.651
305.18 K, 8000 kPa, x2 = 0.6015	140.462
305.18 K, 9997 kPa, x2 = 0.3997	141.056
305.18 K, 11999 kPa, x2 = 0.7985	429.815
305.18 K, 14999 kPa, x2 = 0.2017	165.099
305.18 K, 18002 kPa, x2 = 0.7985	608.035
305.19 K, 7000 kPa, x2 = 0.2017	68.786
305.19 K, 9001 kPa, x2 = 0.2017	91.841
305.19 K, 9001 kPa, x2 = 0.7985	243.07
305.19 K, 12005 kPa, x2 = 0.6015	253.791
305.2 K, 5004 kPa, x2 = 0.8988	106.835
305.2 K, 10000 kPa, x2 = 0.2017	103.792
305.2 K, 11001 kPa, x2 = 0.7985	369.844
305.2 K, 11998 kPa, x2 = 0.8988	604.408
305.21 K, 8996 kPa, x2 = 0.8988	345.688
305.21 K, 15000 kPa, x2 = 0.8988	683.999
305.22 K, 6000 kPa, x2 = 0.2017	57.81
305.22 K, 8006 kPa, x2 = 0.3997	106.718
305.22 K, 10006 kPa, x2 = 0.6015	193.541
305.23 K, 5002 kPa, x2 = 0.0998	40.525
305.23 K, 6002 kPa, x2 = 0.8988	139.912
305.23 K, 10000 kPa, x2 = 0.7985	303.258
305.24 K, 8000 kPa, x2 = 0.7985	193.79
305.24 K, 17994 kPa, x2 = 0.3997	283.653
308.05 K, 7997 kPa, x2 = 0.8988	229.008
308.06 K, 6995 kPa, x2 = 0.8988	175.453
308.08 K, 10996 kPa, x2 = 0.3997	155.394
308.09 K, 8982 kPa, x2 = 0.8988	306.981
308.11 K, 7002 kPa, x2 = 0.6015	114.28
308.11 K, 7996 kPa, x2 = 0.2017	78.731
308.11 K, 18002 kPa, x2 = 0.8988	711.774
308.12 K, 8003 kPa, x2 = 0.6015	136.504
308.12 K, 11997 kPa, x2 = 0.7985	401.005
308.12 K, 18001 kPa, x2 = 0.2017	195.388
308.12 K, 18004 kPa, x2 = 0.0998	162.496
308.13 K, 8003 kPa, x2 = 0.3997	104.538
308.13 K, 9004 kPa, x2 = 0.2017	90.207
308.13 K, 10002 kPa, x2 = 0.2017	101.87
308.13 K, 11000 kPa, x2 = 0.0998	95.867
308.13 K, 11001 kPa, x2 = 0.6015	214.588
308.13 K, 15001 kPa, x2 = 0.7985	523.511
308.13 K, 15007 kPa, x2 = 0.6015	328.628
308.14 K, 5002 kPa, x2 = 0.2017	46.531
308.14 K, 5997 kPa, x2 = 0.6015	93.812
308.14 K, 6001 kPa, x2 = 0.3997	74.193
308.14 K, 8998 kPa, x2 = 0.6015	160.546
308.14 K, 11000 kPa, x2 = 0.2017	113.723
308.14 K, 11000 kPa, x2 = 0.7985	342.357
308.14 K, 12002 kPa, x2 = 0.6015	243.454
308.14 K, 14996 kPa, x2 = 0.3997	227.135
308.15 K, 3000 kPa, x2 = 0.0998	23.193
308.15 K, 6999 kPa, x2 = 0.0998	57.796
308.15 K, 8996 kPa, x2 = 0.3997	120.739
308.15 K, 14997 kPa, x2 = 0.0998	134.77
308.16 K, 4002 kPa, x2 = 0.2017	36.486
308.16 K, 4004 kPa, x2 = 0.6015	57.94
308.16 K, 4006 kPa, x2 = 0.7985	70.911
308.16 K, 5006 kPa, x2 = 0.3997	60.225
308.16 K, 9001 kPa, x2 = 0.7985	229.843
308.16 K, 9993 kPa, x2 = 0.8988	417.764
308.16 K, 10002 kPa, x2 = 0.6015	186.699
308.16 K, 11997 kPa, x2 = 0.0998	105.588
308.16 K, 15001 kPa, x2 = 0.2017	161.57
308.16 K, 17997 kPa, x2 = 0.3997	276.178
308.17 K, 3998 kPa, x2 = 0.0998	31.42
308.17 K, 5006 kPa, x2 = 0.7985	93.74
308.17 K, 9004 kPa, x2 = 0.0998	76.501
308.17 K, 9994 kPa, x2 = 0.3997	137.721
308.17 K, 18002 kPa, x2 = 0.7985	590.479
308.18 K, 6001 kPa, x2 = 0.2017	56.895
308.18 K, 6999 kPa, x2 = 0.2017	67.631
308.18 K, 8000 kPa, x2 = 0.7985	185.875
308.18 K, 9999 kPa, x2 = 0.0998	86.118
308.19 K, 6002 kPa, x2 = 0.0998	48.761
308.19 K, 6002 kPa, x2 = 0.7985	119.651
308.19 K, 18000 kPa, x2 = 0.6015	395.269
308.2 K, 11998 kPa, x2 = 0.2017	125.636
308.21 K, 5001 kPa, x2 = 0.0998	39.985
308.21 K, 7002 kPa, x2 = 0.7985	149.932
308.22 K, 5002 kPa, x2 = 0.8988	104.568
308.22 K, 5006 kPa, x2 = 0.6015	75.217
308.22 K, 7001 kPa, x2 = 0.3997	88.937
308.22 K, 10003 kPa, x2 = 0.7985	282.745
308.23 K, 4004 kPa, x2 = 0.8988	78.335
308.23 K, 5998 kPa, x2 = 0.8988	135.871
308.23 K, 12000 kPa, x2 = 0.3997	173.174
308.24 K, 8000 kPa, x2 = 0.0998	67.015
308.24 K, 11004 kPa, x2 = 0.8988	513.225
308.26 K, 4003 kPa, x2 = 0.3997	46.849
308.26 K, 14998 kPa, x2 = 0.8988	660.797
308.34 K, 11928 kPa, x2 = 0.8988	563.033
